Data from the NIST ThermoML archive (doi:10.1016/j.jct.2011.08.008).

Assay: xn = mol fraction of the nth substance listed
Settings: 101 kPa, Liquid, Vibrating tube method

CCCCn1cc[n+](C)c1.[Cl-] [1-butyl-3-methylimidazolium chloride] + OCCO
mass density [kg/m3]
Settings | 298.15 K | 308.15 K | 318.15 K
x1 = 0.0132 | 1108.21 | 1101.08 | 1093.97
x1 = 0.0294 | 1106.1 | 1099.21 | 1092.21
x1 = 0.0484 | 1104.02 | 1097.19 | 1090.29
x1 = 0.1028 | 1098.95 | 1092.29 | 1085.61
x1 = 0.2101 | 1092.39 | 1085.44 | 1079.22
x1 = 0.3094 | 1088.58 | 1081.93 | 1075.58
x1 = 0.4202 | 1085.81 | 1079.23 | 1072.98
x1 = 0.4947 | 1084.46 | 1078.12 | 1072
x1 = 0.5992 | 1083.24 | 1077.18 | 1071.11
x1 = 0.7117 | 1082.47 | 1076.69 | 1070.76
x1 = 0.8143 | 1082.35 | 1076.51 | 1070.75
x1 = 0.9126 | 1082.27 | 1076.49 | 1070.88
x1 = 1 | 1082.01 | 1076.51 | 1071.04

CCCCn1cc[n+](C)c1.COS(=O)(=O)[O-] [1-butyl-3-methylimidazolium methyl sulfate] + OCCO
mass density [kg/m3]
Settings | 298.15 K | 308.15 K | 318.15 K
x1 = 0.0052 | 1110.66 | 1103.5 | 1096.12
x1 = 0.0512 | 1119.06 | 1111.91 | 1104.2
x1 = 0.1106 | 1128.96 | 1121.84 | 1114.04
x1 = 0.2135 | 1145.36 | 1138.27 | 1130.75
x1 = 0.3018 | 1156.55 | 1149.5 | 1142.35
x1 = 0.4059 | 1167.63 | 1160.69 | 1153.59
x1 = 0.5066 | 1176.9 | 1170.01 | 1162.97
x1 = 0.6163 | 1185.67 | 1178.75 | 1171.77
x1 = 0.7 | 1191.66 | 1184.71 | 1177.89
x1 = 0.8408 | 1199.42 | 1192.62 | 1185.85
x1 = 0.9244 | 1202.97 | 1196.25 | 1189.52
x1 = 1 | 1205.84 | 1199.25 | 1192.7

CCCCCCCC[n+]1ccn(C)c1.[Cl-] [1-methyl-3-octylimidazolium chloride] + OCCO
mass density [kg/m3]
Settings | 298.15 K | 308.15 K | 318.15 K
x1 = 0.0077 | 1106.07 | 1098.89 | 1091.83
x1 = 0.0589 | 1085.93 | 1078.94 | 1072.21
x1 = 0.119 | 1068.7 | 1061.98 | 1055.33
x1 = 0.2112 | 1050.79 | 1044.34 | 1037.95
x1 = 0.2985 | 1039.53 | 1033.27 | 1026.92
x1 = 0.4021 | 1030.4 | 1024.26 | 1017.91
x1 = 0.5118 | 1023.63 | 1017.52 | 1011.2
x1 = 0.6041 | 1019.49 | 1013.41 | 1007.18
x1 = 0.6999 | 1016.21 | 1010.14 | 1003.94
x1 = 0.7837 | 1013.92 | 1007.87 | 1001.74
x1 = 0.8328 | 1012.75 | 1006.75 | 1000.65
x1 = 0.9583 | 1010.27 | 1004.34 | 998.43
x1 = 1 | 1009.56 | 1003.74 | 997.92
